# Results: patent US20210371817A1, “COMPOSITIONS AND METHODS FOR PRECISE PATTERNING OF POSTERIOR NEUROECTODERM FROM HUMAN PLURIPOTENT STEM CELLS” (WISCONSIN ALUMNI RESEARCH FOUNDATION, priority 2013, published 2021)
# Tested on: NSC cultures
# Assay: Hox protein expression in NSC cultures after RA treatment (immunocytochemistry, flow cytometry)
# Assay type: cell-based, human
# Experimental: Assessment of neuroectoderm or mesoderm fate transition by flow cytometry. Grey histogram, IgG control; red histogram, antigen of interest. Data are presented as mean±standard deviation calculated from two biological replicates. (FIG. 8B) For experiments in panels FIGS. 8C-8F, neuromesodermal propagation was halted by removing FGF8b/CHIR 99021/GDF11 and adding RA. Assays were conducted after 4 days of RA treatment. (FIG. 8C) HOX profiles generated after RA treatment. Each gene is normalized to its maximum expression. Error bars are standard deviation calculated from duplicate reactions. (FIG. 8D) HoxB4 and HoxD10 expression in neuroepithelial cultures after RA treatment. Scale bars, 100 m. (FIG. 8E) Purity of Sox2, Pax6, HoxB4, and HoxD10 after 4 days of RA treatment. Sox2, Pax6, and HoxB4 were quantified using flow cytometry and HoxD10 was quantified by manual counting of dissociated cells ([…]). Error bars are standard deviation calculated from at least two biological replicates. […] (FIG. 8F) Motor neuron differentiation at cervical, thoracic, and lumbar spinal cord depths, where the motor neuron precursors show region-specific patterns of FoxP1, Isl1, and Hb9 co-expression. (FIG. 8G) Neuronal maturation from cervical, thoracic, and lumbar patterned NSCs, as assessed by immunocytochemistry (top panel; DAPI (blue) is overlaid in all images; Scale bars, 20 m) and RT-PCR (50 cycles; bottom panel).
# FIGS. 9A-9C (FIG. 9A) provides additional data showing that RA induces a neuroectodermal fate and halts colinear HOX activation, using the neural differentiation scheme shown in FIG. 8B and representative hindbrain cultures assessed by qPCR. (FIG. 9B) Representative hindbrain cultures assessed by immunocytochemistry. (FIG. 9C) Representative hindbrain cultures assessed by flow cytometry. All data are presented as mean±S.D. and qPCR data are normalized to the time point of maximum expression for each gene. For the hindbrain cultures, HoxB1 and HoxB4 were quantified by immunocytochemistry relative to DAPI+ nuclei, while Sox2 and Pax6 were quantified by flow cytometry. Scale bars, 100 m.
# Flow cytometry. Flow cytometry was conducted as described in the Examples above. Primary antibodies against Sox2 (mouse; 1:1000; Millipore), brachyury (goat; 1:200; R&D Systems), Pax6 (mouse; 1:200; DSHB), and HoxB4 (rat; 1:50; DSHB) were utilized. Samples were run on a FACSCaliber (BD Biosciences) and data were analyzed using Cyflogic software. Positive events were quantified by gating above the top 1% of species-matched IgG controls.
# Immunocytochemistry. Immunocytochemistry was conducted as previously described. […]
substance,measurement,setting,value
"GDF11: Growth differentiation factor 11, a TGFβ family member",HoxD10+ cells,RA added at 120 h of neuromesodermal propagation,0%
same,HoxD10+ cells,"RA added at 144 h of neuromesodermal propagation, after GDF11 treatment",89±2%
